Here are results for 13 molecules from US20080058356A1, “2,6 Bisheteroaryl-4-Aminopyrimidines as Adenosine Receptor Antagonists” (Neurocrine Biosciences, Inc., priority 2003, published 2008).

For orientation: melting point means the temperature of the solid-liquid transition.

As for `c1ccc([C@H]2C[C@@H]2Nc2cc(-c3ccco3)nc(-c3nccs3)n2)cc1` (relative stereo) [Example 198, 6-(2-Furyl)-N-[(1S*,2R*)-2-phenylcyclopropyl]-2-(1,3-thiazol-2-yl)pyrimidin-4-amine], the melting point was in the range of 90 to 91.9 °C.

The molecule `Nc1cc(-n2cccn2)nc(-c2ccc(Cl)o2)n1` [Example 50, 2-(5-Chloro-2-furyl)-6-(1H-pyrazol-1-yl)pyrimidin-4-amine] returned a melting point of 209.9 to 211 °C. Under `CCC(=O)Nc1cc(-n2cccn2)nc(-c2ccc(Cl)o2)n1` [Example 51, N-[2-(5-Chloro-2-furyl)-6-(1H-pyrazol-1-yl)pyrimidin-4-yl]propanamide] stands 189.3 to 190.1 °C; under `CCC(=O)Nc1cc(-c2cccnc2)nc(-c2ccco2)n1` [Example 54, N-[2-(2-Furyl)-6-pyridin-3-ylpyrimidin-4-yl]propanamide], 251.8 to 253.2 °C. The same measure for `Nc1cc(-c2cccnc2)nc(-c2ccco2)n1` [Example 55, 2-(2-Furyl)-6-pyridin-3-ylpyrimidin-4-amine]: 232.7 to 233.1 °C; for `c1coc(-c2nc(NCC3CC3)cc(-n3cccn3)n2)c1` [Example 119, N-(Cyclopropylmethyl)-2-(2-furyl)-6-(1H-pyrazol-1-yl)pyrimidin-4-amine]: 100.9 to 101.7 °C.

Molecule `NCCNc1cc(-n2cccn2)nc(-c2ccco2)n1` [Example 122, N-[2-(2-Furyl)-6-(1H-pyrazol-1-yl)pyrimidin-4-yl]ethane-1,2-diamine] showed a melting point of 104.1 to 105.1 °C. `c1ccc(CCNc2cc(-n3cccn3)nc(-c3ccco3)n2)nc1` [Example 125, 2-(2-Furyl)-6-(1H-pyrazol-1-yl)-N-[2-(pyridin-2-yl)ethyl]pyrimidin-4-amine] yielded a melting point of 110.2 to 110.9 °C. The same measure for `OCCCNc1cc(-n2cccn2)nc(-c2cccs2)n1` [Example 131, 3-{[6-(1H-Pyrazol-1-yl)-2-(2-thienyl)pyrimidin-4-yl]amino}propan-1-ol]: 129.9 to 130.8 °C; for `NCCNc1cc(-n2cccn2)nc(-c2cccs2)n1` [Example 132, N-(2-Aminoethyl)-N-[6-(1H-pyrazol-1-yl)-2-(2-thienyl)pyrimidin-4-yl]amine]: 146.6 to 147.1 °C; for `COc1ccc(CCNc2cc(-n3cccn3)nc(-c3cccs3)n2)cc1OC` [Example 134, N-[2-(3,4-Dimethoxyphenyl)ethyl]-6-(1H-pyrazol-1-yl)-2-(2-thienyl)pyrimidin-4-amine]: 116.2 to 117.3 °C. `COc1ccc(CCNc2cc(-c3ccco3)nc(-c3nccs3)n2)cc1OC` [Example 196, N-[2-(3,4-Dimethoxyphenyl)ethyl]-6-(2-furyl)-2-(1,3-thiazol-2-yl)pyrimidin-4-amine]: the melting point was in the range of 83 to 83.8 °C. Molecule `COc1ccc(COC(=O)Nc2cc(-n3cccn3)nc(-c3ccco3)n2)cc1OC` [Example 202, 3,4-Dimethoxybenzyl [2-(2-furyl)-6-(1H-pyrazol-1-yl)pyrimidin-4-yl]carbamate] came in with a melting point of 147.8 to 148.5 °C.
